Data: publication PMC12677607, “Identification of a Pair of Linear or Cyclic Naturally Inspired Bifunctional Lipopeptide Antibiotics That Overcome Antimicrobial Resistance” (Advanced Science, 2025)
In brackets after ≈: the same amount, converted by molar mass. Bridge positions count the residues as written; N and C are the ends. Square brackets hold non-standard residues; d marks the D form. Peptide text beside a SMILES is read from it. * marks the point of attachment. Myristoyl = CCCCCCCCCCCCCC(=O)*; Orn = NCCC[C@H](N)C(=O)O; Dab = NCC[C@H](N)C(=O)O; Dap = NC[C@H](N)C(=O)O

Legend:
[1] = system: S. aureus USA300; assay: Raising resistant mutants by direct plating; format: cell-based
[2] = system: methicillin-resistant S. aureus USA300; assay: Mouse peritonitis-sepsis model; format: in vivo; settings: S. aureus USA300, ICR mice, single s.c. dose 1 h after infection, doses 50, 100, 150 mg kg^−1, n = 5
Protocol: Six‐week‐old female ICR mice were used in all experiments and housed in a temperature‐controlled room (25 °C) with 12‐h light/dark cycle and 30% relative humidity. Mice were observed twice daily for mortality and morbidity. Abnormal clinical signs were recorded if observed and totally monitored for five days. The detailed methods for the mouse peritonitis‐sepsis model were as follows.
Methicillin‐resistant S. aureus USA300 was cultured in LB broth at 37 °C for 16 h and diluted with 7% type II porcine stomach mucin with 0.2 mM FeNH4‐citrate. S. aureus cell cultures were diluted to provide a challenge inoculum of 2.5 × 10^8 CFU in 0.5 mL and then administered into each mouse via intraperitoneal injection. 25 mice were randomly grouped into five per cohort (n = 5) and each cohort was given a single dose of either vehicle (20% solutol), aquicidine C4 at 50, 100, or 150 mg kg^−1, and vancomycin at 50 mg kg^−1 1 hr after infection via subcutaneous injection.

[3] = system: methicillin-resistant S. aureus USA300; assay: Neutropenic thigh infection model; format: in vivo, mouse; settings: 50 mg kg^−1 s.c. at 2, 10, 18 h, burden at 24 h, n = 8 thighs
Protocol: (§1) Six‐week‐old female ICR mice were used in all experiments and housed in a temperature‐controlled room (25 °C) with 12‐h light/dark cycle and 30% relative humidity. Meropenem‐resistant A. baumannii 1104008 or methicillin‐resistant S. aureus USA300 was cultured in the MH broth containing 50 µg mL^−1 of gentamycin and the MH broth, respectively, at 37 °C and 200 rpm overnight. Then, the strains A. baumannii 1104008 or S. aureus USA300 were washed twice in 0.9% saline and further diluted to verify the bacterial suspension with a challenge inoculum of ≈1.0 × 10^6 CFU in a volume of 0.05 mL per mouse thigh. Mice were rendered neutropenic by receiving 150 and 100 mg kg^−1 of cyclophosphamide via intraperitoneal injection on day‐4 and day‐1 before infection, respectively. For treating the thigh infection caused by A. baumannii 1104008, mice were given 100 µL of vehicle (20% solutol), colistin (25 mg kg^−1, 20% solutol), or aquicidine L (25 mg kg^−1, 20% solutol) at 2, 8, 14, and 20 h after post‐infection via subcutaneous injection. […] All mice were observed after infection for morbidity, and any abnormal signs were recorded. […] The treatment efficacies of aquicidine L or C4 were determined as the bacterial burden reduction in the thighs relative to both the vehicle and colistin‐ or vancomycin‐treated controls. All graphic data were analyzed using the GraphPad Prism software (Prism10).

[4] = system: S. aureus USA300 Cls2A338stop; assay: MIC against telomycin-resistant mutant; format: cell-based
Protocol: (§2) All MIC assays were performed two independent times (n = 2) in 96‐well plates using a broth micro‐dilution method. The lowest concentration of that inhibited visible microbial growth was recorded as the MIC value.
(§3) For most of bacterial strains, overnight cultures were diluted 5000‐fold in LB broth. For E. faecium and S. aureus, overnight cultures were diluted 1000‐ and 10000‐fold in LB broth, respectively. 100 µL of diluted cells was mixed with 100 µL of LB broth containing each peptide ranging from 64 to 0.125 µg mL^−1 at 2‐fold serial dilutions.
(§4) Overnight cultures S. aureus USA300 were diluted 10000‐fold in LB broth, and 100 µL of dilute cell suspension was added to 96‐well plates containing 100 µL serially diluted aquicidine C4, telomycin, and daptomycin (with 15 mM CaCl2). Overnight cultures K. pneumoniae CRKP5452 were diluted 5000‐fold in LB broth, and 100 µL of dilute cell suspension was added to 96‐well plates containing 100 µL serially diluted aquicidine L and colistin. After an incubation of 24 h at 37 °C, the MIC value was determined. […] The MIC value was recorded as described above, and the process was repeated daily for 21 days. Experiments were performed two independent times (n = 2).
Single‐nucleotide polymorphisms (SNPs) for telomycin‐, daptomycin‐ or colistin‐resistant mutants were identified using SNIPPY by mapping DNBSEQ‐seq reads to the reference genome of S. aureus USA300 or K. pneumoniae CRKP5452.

[5] = system: S. aureus USA300; assay: Scanning electron microscopy of treated cultures; format: cell-based; settings: 4× the MIC, after 180 min of treatment
[6] = system: S. aureus USA300; assay: Resistance acquisition by serial passaging; format: cell-based; settings: S. aureus USA300, sub-MIC levels, daily passage for 21 days, n = 2
Protocol: as §4

[7] = system: Acinetobacter baumannii P53; assay: microbe, parasite or virus in culture; format: cell-based; settings: Table S11; LB broth, 37 °C, 16 h, n = 2
How it was run: (§5)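 Growth inhibition read visually; MIC taken as lowest inhibitory concentration. LB medium; inocula from overnight cultures diluted 5000-fold, S. aureus 10000-fold. Peptide range 64 to 0.125 µg mL^−1 (2-fold, pre-mix), two independent determinations.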

[8] = system: meropenem-resistant A. baumannii 1104008; assay: Neutropenic thigh infection model; format: in vivo, mouse; settings: A. baumannii 1104008 thigh, 25 mg kg^−1 s.c. at 2, 8, 14, 20 h, burden at 24 h, n = 8 thighs
Protocol: as §1

[9] = system: E. coli
[10] = system: E. coli DH5α; assay: Membrane component feeding assay; format: cell-based; settings: feeding 2 to 128 µg mL^−1, E. coli DH5α, Figure 5e
Protocol: The effects of bacterial membrane components on aquicidine L's or aquicidine C4's anti‐bacterial activities were evaluated using E. coli DH5α or S. aureus USA300. […] All experiments were done in triplicate (n = 3) and repeated two independent times (n = 2).

[11] = system: Shigella Castellani LXX; assay: MIC assay (broth micro-dilution); format: cell-based; settings: Table S11; LB broth, 37 °C, 16 h, n = 2
How it was run: as §5

[12] = system: K. pneumoniae 15580; assay: MIC against colistin-resistant strain; format: cell-based; settings: Figure S127a
Protocol: as §2, §3

[13] = system: K. pneumoniae CRKP5452; assay: Resistance acquisition by serial passaging; format: cell-based; settings: K. pneumoniae CRKP5452, sub-MIC levels, daily passage for 21 days, n = 2
Protocol: as §4

Compound | increase in MIC of colonies from direct plating on antibiotic-containing solid media [1] | minimal dose required for 100% survival [2] [mg/kg] | reduction in CFUs compared with the vehicle [3] [log10] | antibacterial activity (MIC) S. aureus USA300 Cls2A338stop ([4]; Figure S127b, telomycin-resistant mutant) [µg/mL] | increase in MIC against resistant mutant compared to wild type ([4]; S. aureus USA300 Cls2^A338stop vs wild type) [fold] | scanning electron microscopy, cell lysis [5] | increase of MIC during serial passaging [6] | MIC Acinetobacter baumannii P53 [7] [µg/mL] | reduction in CFUs compared with the vehicle [8] [log10] | resistant mutants by direct plating [9] | inhibition of antibacterial activity by LPS and PE [10] | MIC Shigella Castellani LXX [11] [µg/mL] | antibacterial activity (MIC) K. pneumoniae 15580 [12] [µg/mL] | increase of MIC during serial passaging [13]
CCCCCCCCCCCCCC(=O)N[C@@H](CN)C(=O)N[C@H](C(=O)N[C@@H](CC(C)C)C(=O)N[C@H]1COC(=O)[C@H](Cc2ccccc2)NC(=O)[C@H](CC(N)=O)NC(=O)[C@H](CCCN)NC(=O)[C@H]([C@@H](C)CC)NC(=O)[C@H](Cc2ccccc2)NC(=O)[C@H](CN)NC(=O)[C@H](CCN)NC1=O)[C@@H](C)O [synAQU5-C4] (Myristoyl-[Dap]TLS[Dab][Dap]FI[Orn]NF; ester 4-C) | did not show more than a one‐fold increase in MIC | 100 | 3 | 16 | 4 | lysed the majority of cells | no higher than twofold | – | – | – | – | – | – | –
CCCCCCCCCCCCCC(=O)N[C@@H](CN)C(=O)N[C@H](C(=O)N[C@@H](CC(C)C)C(=O)N[C@@H](CO)C(=O)N[C@@H](CCN)C(=O)N[C@@H](CN)C(=O)N[C@@H](Cc1ccccc1)C(=O)N[C@H](C(=O)N[C@@H](CCCN)C(=O)N[C@@H](CC(N)=O)C(=O)N[C@@H](Cc1ccccc1)C(=O)O)[C@@H](C)CC)[C@@H](C)O [synAQU5-L] (Myristoyl-[Dap]TLS[Dab][Dap]FI[Orn]NF-OH) | – | – | – | – | – | – | – | 8 (≈ 5.56 µM) | 3 | failed to identify E. coli resistant mutants | stronger dose‐dependent inhibition | 8 (≈ 5.56 µM) | 8 | no higher than two‐fold
